Laboratory results: PubChem BioAssay AID336 (DTP/NCI, 2004)
Values joined by “and” are separate entries in the source; they are usually repeats but may differ in a detail not shown here. Equal values may be shown once. Toxic doses and inconclusive results are not listed. *1 amine or outer side, *2 acyl side, *3 side chain or, on linkers, in order; H or OH if unused. Where a SMILES comes first, the peptide text is derived from it. Bridges are numbered along the chain shown (N, C = ends). Roman numbers before positions name the chains, in order. [ ]: non-standard residue; d: D form. Actinocin(9to1) = Cc1c2oc3c(C)ccc(C(=O)[*:1])c3nc-2c(C(=O)[*:2])c(N)c1=O; aThr = C[C@H](O)[C@H](N)C(=O)O; NMeV = CN[C@H](C(=O)O)C(C)C; Sar = CNCC(=O)O

System: BDF1 mice, P388/VCR leukemia ip, median survival T/C
Experiment: NCI In Vivo Anticancer Drug Screen. Data for tumor model P388 Leukemia resistant to Vincristine; NSC 67574 (intraperitoneal) in B6D2F1 (BDF1) mice
Conditions: endpoint: median survival time, higher = longer survival
Experimental: The antitumor activity of compounds was measured in mice bearing transplantable tumors. Survival or tumor size were measured and the results are expressed as the measurement made in the treated group (T) divided by the measurement made in the vehicle treated control group (C). The tumor model used in this assay is P388 Leukemia resistant to Vincristine; NSC 67574 (intraperitoneal) in B6D2F1 (BDF1) mice

[1] = dose: 25.0 micrograms/kg/injection, schedule: Q01DX010 (ip), vehicle: other
[2] = dose: 5.0 mg/kg/injection, schedule: Q01DX010 (ip), vehicle: saline
[3] = dose: 10.0 mg/kg/injection, schedule: Q01DX010 (ip), vehicle: saline
[4] = dose: 20.0 mg/kg/injection, schedule: Q01DX010 (ip), vehicle: saline
[5] = dose: 40.0 mg/kg/injection, schedule: Q01DX010 (ip), vehicle: saline
[6] = dose: 15.0 mg/kg/injection, schedule: Q01DX010 (ip), vehicle: saline
[7] = dose: 30.0 mg/kg/injection, schedule: Q01DX010 (ip), vehicle: saline
[8] = dose: 60.0 mg/kg/injection, schedule: Q01DX010 (ip), vehicle: saline
[9] = dose: 8.0 mg/kg/injection, schedule: Q01DX010 (ip), vehicle: saline
[10] = dose: 6.0 mg/kg/injection, schedule: Q01DX010 (ip), vehicle: saline
[11] = dose: 12.0 mg/kg/injection, schedule: Q01DX010 (ip), vehicle: saline
[12] = dose: 18.0 mg/kg/injection, schedule: Q01DX010 (ip), vehicle: saline
[13] = dose: 1.5 mg/kg/injection, schedule: Q01DX010 (ip), vehicle: saline
[14] = dose: 3.0 mg/kg/injection, schedule: Q01DX010 (ip), vehicle: saline

Cc1c2oc3c(C)ccc(C(=O)N[C@@H]4C(=O)N[C@H](C(C)C)C(=O)N5CCC[C@H]5C(=O)N(C)CC(=O)N(C)[C@@H](C(C)C)C(=O)O[C@H]4C)c3nc-2c(C(=O)N[C@@H]2C(=O)N[C@H](C(C)C)C(=O)N3CCC[C@H]3C(=O)N(C)CC(=O)N(C)[C@@H](C(C)C)C(=O)O[C@H]2C)c(N)c1=O (I: [aThr][dV]P[Sar][NMeV] / II: [aThr][dV]P[Sar][NMeV]; ester I:1-I:C, II:1-II:C; linker I:N-II:N via Actinocin(9to1))
T/C (dose: 12.5 micrograms/kg/injection, schedule: Q01DX010 (ip), vehicle: other): 108 % of control and 112 % of control | T/C [1]: 124 % of control | T/C (dose: 108.0 micrograms/kg/injection, schedule: Q04DX003 (ip), vehicle: saline + alcohol): 103 % of control | T/C (dose: 180.0 micrograms/kg/injection, schedule: Q04DX003 (ip), vehicle: saline + alcohol): 110 % of control | T/C (dose: 300.0 micrograms/kg/injection, schedule: Q04DX003 (ip), vehicle: saline + alcohol): 106 % of control | T/C (dose: 500.0 micrograms/kg/injection, schedule: Q04DX003 (ip), vehicle: saline + alcohol): 93 % of control

N=[N+]=CC(=O)OCC(N)C(=O)O (stereo not drawn)
T/C (dose: 3.13 mg/kg/injection, schedule: Q01DX010 (ip), vehicle: saline): 152 % of control | T/C (dose: 6.25 mg/kg/injection, schedule: Q01DX010 (ip), vehicle: saline): 165 % of control

CN(C)c1ccc(/C=C/c2ccnc3ccccc23)cc1
T/C [2]: 92 % of control and 104 % of control | T/C [3]: 88 % of control and 96 % of control | T/C [4]: 104 % of control | T/C [5]: 96 % of control and 100 % of control

C[n+]1ccc(NC(=O)c2ccc(NC(=O)c3cccc(C(=O)Nc4ccc(C(=O)Nc5cc[n+](C)cc5)cc4)c3)cc2)cc1
T/C [2]: 100 % of control | T/C [3]: 107 % of control | T/C [5]: 166 % of control

C[N+](C)(C)c1ncnc2nc[nH]c12
T/C [6]: 100 % of control | T/C [7]: 120 % of control | T/C [8]: 113 % of control | T/C (dose: 120.0 mg/kg/injection, schedule: Q01DX010 (ip), vehicle: saline): 116 % of control

O=C(Nc1ccc(NC2=NCCN2)cc1)c1ccc(C(=O)Nc2ccc(NC3=NCCN3)cc2)cc1
T/C (dose: 2.0 mg/kg/injection, schedule: Q01DX010 (ip), vehicle: saline): 121 % of control | T/C (dose: 4.0 mg/kg/injection, schedule: Q01DX010 (ip), vehicle: saline): 192 % of control | T/C [9]: 171 % of control and 211 % of control

Cn1c(N)nc2nc[nH]c2c1=S
T/C [3]: 92 % of control and 100 % of control | T/C [4]: 96 % of control and 107 % of control | T/C [5]: 100 % of control and 123 % of control | T/C (dose: 80.0 mg/kg/injection, schedule: Q01DX010 (ip), vehicle: saline): 96 % of control

CCn1cnc2c(=S)nc[nH]c21
T/C (dose: 15.6 mg/kg/injection, schedule: Q01DX010 (ip), vehicle: saline): 100 % of control and 109 % of control | T/C (dose: 31.3 mg/kg/injection, schedule: Q01DX010 (ip), vehicle: saline): 100 % of control | T/C (dose: 62.5 mg/kg/injection, schedule: Q01DX010 (ip), vehicle: saline): 100 % of control | T/C (dose: 125.0 mg/kg/injection, schedule: Q01DX010 (ip), vehicle: saline): 95 % of control

O=C(Nc1ccc(C2=NCCN2)cc1)c1ccc(C(=O)Nc2ccc(C3=NCCN3)cc2)c([N+](=O)[O-])c1
T/C [10]: 103 % of control | T/C [9]: 114 % of control | T/C [11]: 111 % of control | T/C [12]: 104 % of control and 111 % of control

CN=C(NC)c1ccc(NC(=O)c2ccc(C(=O)Nc3ccc(C(=NC)NC)cc3)c(Cl)c2)cc1
T/C [12]: 117 % of control | T/C (dose: 27.0 mg/kg/injection, schedule: Q01DX010 (ip), vehicle: saline): 95 % of control

Nc1nc(N)c2nc(CNc3ccc(C(=O)NC(CCC(=O)O)C(=O)O)cc3)cnc2n1 (stereo not drawn)
T/C [1]: 118 % of control | T/C (dose: 50.0 micrograms/kg/injection, schedule: Q01DX010 (ip), vehicle: other): 114 % of control | T/C (dose: 200.0 micrograms/kg/injection, schedule: Q01DX010 (ip), vehicle: other): 166 % of control and 175 % of control

COc1cc(NS(C)(=O)=O)ccc1Nc1c2ccccc2nc2ccccc12
T/C (dose: 3.6 mg/kg/injection, schedule: Q04DX003 (ip), vehicle: clinical formulation): 188 % of control | T/C (dose: 3.6 mg/kg/injection, schedule: Q04DX003 (ip), vehicle: other): 122 % of control | T/C (dose: 6.0 mg/kg/injection, schedule: Q04DX003 (ip), vehicle: clinical formulation): 191 % of control | T/C (dose: 10.0 mg/kg/injection, schedule: Q04DX003 (ip), vehicle: clinical formulation): 193 % of control | T/C (dose: 10.0 mg/kg/injection, schedule: Q04DX003 (ip), vehicle: other): 153 % of control | T/C (dose: 16.7 mg/kg/injection, schedule: Q04DX003 (ip), vehicle: clinical formulation): 107 % of control | T/C (dose: 16.7 mg/kg/injection, schedule: Q04DX003 (ip), vehicle: other): 88 % of control

N#CCSc1ncnc2nc[nH]c12
T/C [6]: 96 % of control and 100 % of control | T/C [7]: 100 % of control and 103 % of control | T/C [8]: 108 % of control and 123 % of control

N[C@@H](Cc1ccc(N(CCCl)CCCl)cc1)C(=O)O
T/C (dose: 3.6 mg/kg/injection, schedule: Q01DX001 (ip), vehicle: saline): 184 % of control | T/C (dose: 6.0 mg/kg/injection, schedule: Q01DX001 (ip), vehicle: saline): 181 % of control | T/C (dose: 10.0 mg/kg/injection, schedule: Q01DX001 (ip), vehicle: saline): 191 % of control | T/C (dose: 16.7 mg/kg/injection, schedule: Q01DX001 (ip), vehicle: saline): 161 % of control

NC(Cc1ccc(N(CCCl)CCCl)cc1)C(=O)O (stereo not drawn)
T/C (dose: 1.25 mg/kg/injection, schedule: Q01DX010 (ip), vehicle: saline): 170 % of control | T/C (dose: 2.5 mg/kg/injection, schedule: Q01DX010 (ip), vehicle: saline): 190 % of control and 191 % of control | T/C [2]: 300 % of control | T/C [3]: 86 % of control and 91 % of control

Nc1ncnc2[nH]ncc12
T/C [13]: 88 % of control | T/C [14]: 88 % of control | T/C [10]: 88 % of control and 103 % of control | T/C [11]: 119 % of control

CN(Cc1cnc2nc(N)nc(N)c2n1)c1ccc(C(=O)N[C@@H](CCC(=O)O)C(=O)O)cc1
T/C (dose: 8.64 mg/kg/injection, schedule: Q04DX003 (ip), vehicle: sodium bicarbonate): 167 % of control | T/C (dose: 14.4 mg/kg/injection, schedule: Q04DX003 (ip), vehicle: sodium bicarbonate): 188 % of control | T/C (dose: 24.0 mg/kg/injection, schedule: Q04DX003 (ip), vehicle: sodium bicarbonate): 214 % of control

CNc1nc(Nc2ccc(C3=NCCN3)cc2)nc(Nc2ccc(C3=NCCN3)cc2)n1
T/C [4]: 116 % of control | T/C [7]: 108 % of control | T/C (dose: 45.0 mg/kg/injection, schedule: Q01DX010 (ip), vehicle: saline): 91 % of control

Cc1cc(N(CCCl)CCCl)ccc1N=Nc1ccccc1C(=O)O
T/C [2]: 91 % of control and 112 % of control

COC(=O)C[C@](O)(CCCC(C)(C)O)C(=O)O[C@@H]1C(OC)=C[C@]23CCCN2CCc2cc4c(cc2[C@H]13)OCO4
T/C (dose: 0.72 mg/kg/injection, schedule: Q04DX003 (ip), vehicle: acid diluted with saline): 100 % of control | T/C (dose: 1.2 mg/kg/injection, schedule: Q04DX003 (ip), vehicle: acid diluted with saline): 100 % of control | T/C (dose: 2.0 mg/kg/injection, schedule: Q04DX003 (ip), vehicle: acid diluted with saline): 98 % of control | T/C (dose: 3.33 mg/kg/injection, schedule: Q04DX003 (ip), vehicle: acid diluted with saline): 97 % of control

O=C(Nc1ccc(C2=NCCN2)cc1)c1cc(Cl)cc(C(=O)Nc2ccc(C3=NCCN3)cc2)c1
T/C (dose: 140.0 mg/kg/injection, schedule: Q01DX010 (ip), vehicle: saline): 100 % of control | T/C (dose: 210.0 mg/kg/injection, schedule: Q01DX010 (ip), vehicle: saline): 109 % of control | T/C (dose: 315.0 mg/kg/injection, schedule: Q01DX010 (ip), vehicle: saline): 100 % of control

S=P(N1CC1)(N1CC1)N1CC1
T/C (dose: 0.75 mg/kg/injection, schedule: Q01DX010 (ip), vehicle: saline): 91 % of control and 95 % of control | T/C [13]: 91 % of control | T/C [14]: 95 % of control | T/C [10]: 91 % of control and 104 % of control

N=C(N)c1ccc(Nc2ccc(C(=N)N)cc2)cc1
T/C [13]: 106 % of control | T/C [14]: 92 % of control and 106 % of control | T/C [10]: 89 % of control and 106 % of control | T/C [11]: 92 % of control and 113 % of control
